Test results taken from ChEMBL document CHEMBL4020778, “Recent progress towards clinically relevant ATP-competitive Akt inhibitors” (Bioorg Med Chem Lett, 2017).

Tests used:
Homo sapiens [1] = species: Homo sapiens; assay: Inhibition of PKA (unknown origin) at 10 uM relative to control
[2] = molecular target: Rho-associated protein kinase 2 (Rattus norvegicus) (UniProt Q62868); assay: Inhibition of rat ROCK2 (2 to 543 residues) at 10 uM using substrate after 5 mins in presence of [33P]ATP by scintillation counting method relative to control
[3] = tested on: Ribosomal protein S6 kinase beta-1 (Homo sapiens), P23443 [T412E]; assay: Inhibition of human p70S6K T412E mutant (1 to 421 residues) at 10 uM using substrate after 5 mins in presence of [33P]ATP by scintillation counting method relative to control
[4] = molecular target: Rho-associated protein kinase 1 (Homo sapiens) (UniProt Q13464); assay: Inhibition of ROCK1 (unknown origin) at 10 uM relative to control
Homo sapiens [5] = species: Homo sapiens; assay: Inhibition of MSK (unknown origin) at 10 uM relative to control
[6] = molecular target: Ribosomal protein S6 kinase alpha-1/alpha-3 (Homo sapiens) (UniProt P51812+Q15418); assay: Inhibition of RSK1/2 (unknown origin) at 10 uM relative to control; format: protein assay
[7] = tested on: T1, Serine/threonine-protein kinase Sgk1 (Homo sapiens), O00141 [S422D]; assay: Inhibition of human SGK1 S422D mutant (60 to 431 residues) at 10 uM using substrate after 5 mins in presence of [33P]ATP by scintillation counting method relative to control
T1 sequence (whole entry): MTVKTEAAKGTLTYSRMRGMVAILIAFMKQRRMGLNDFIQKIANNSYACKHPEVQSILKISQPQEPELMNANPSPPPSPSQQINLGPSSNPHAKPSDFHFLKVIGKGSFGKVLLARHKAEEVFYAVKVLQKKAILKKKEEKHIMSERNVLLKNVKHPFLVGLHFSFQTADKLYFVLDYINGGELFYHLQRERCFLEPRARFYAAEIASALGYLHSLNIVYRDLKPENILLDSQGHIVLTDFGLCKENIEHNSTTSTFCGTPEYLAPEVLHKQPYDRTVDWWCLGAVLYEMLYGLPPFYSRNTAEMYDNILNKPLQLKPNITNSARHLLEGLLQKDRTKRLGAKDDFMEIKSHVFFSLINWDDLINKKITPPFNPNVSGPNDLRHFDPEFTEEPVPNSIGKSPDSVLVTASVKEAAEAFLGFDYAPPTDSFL

[8] = molecular target: cAMP-dependent protein kinase catalytic subunit alpha (Homo sapiens, UniProt P17612); assay: Inhibition of recombinant human His-tagged PKA catalytic domain (1 to 351 residues) expressed in Escherichia coli using Ser/Thr 7 as substrate after 1 hr by FRET-based Z'-Lyte assay
[9] = Half life in Balb/c mouse at 5 mg/kg, iv by LC-MS/MS analysis; format: ADME, organism-based; conditions: in vivo
[10] = Ratio of drug level in tumor to plasma in CrTac:Ncr-Fox1nu mouse at 40 mg/kg, po administered once daily for 2 days measured after 24 hrs post last dose; format: ADME, organism-based
[11] = molecular target: Glycogen synthase kinase-3 beta (Homo sapiens) (UniProt P49841); assay: Inhibition of GSK3beta phosphorylation at ser9 in human U87MG cells at >1 uM by Western blot analysis relative to control; format: cell-based
BT-474 = assay: Anti-tumor activity against human BT474 cells xenografted in CrTac:Ncr-Fox1nu mouse assessed as reduction in tumor weight at 40 mg/kg, po administered once daily for 2 days measured after 26 days relative to control; format: functional

Glycogen synthase kinase-3 beta (Homo sapiens), sequence (P49841 whole entry, looked up): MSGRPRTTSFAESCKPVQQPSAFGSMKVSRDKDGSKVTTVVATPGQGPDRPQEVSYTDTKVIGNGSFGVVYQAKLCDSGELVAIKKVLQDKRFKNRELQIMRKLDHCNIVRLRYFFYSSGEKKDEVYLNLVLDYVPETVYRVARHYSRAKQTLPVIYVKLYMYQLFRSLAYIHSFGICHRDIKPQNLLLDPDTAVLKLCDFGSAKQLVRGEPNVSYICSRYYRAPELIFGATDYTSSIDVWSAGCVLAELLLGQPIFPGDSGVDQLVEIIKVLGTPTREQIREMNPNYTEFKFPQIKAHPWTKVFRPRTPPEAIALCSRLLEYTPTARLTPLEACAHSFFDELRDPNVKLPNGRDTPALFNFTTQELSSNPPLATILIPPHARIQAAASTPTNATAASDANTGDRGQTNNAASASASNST
Ribosomal protein S6 kinase alpha-1/alpha-3 (Homo sapiens), sequence (P51812 whole entry, looked up, the tested form may be a part): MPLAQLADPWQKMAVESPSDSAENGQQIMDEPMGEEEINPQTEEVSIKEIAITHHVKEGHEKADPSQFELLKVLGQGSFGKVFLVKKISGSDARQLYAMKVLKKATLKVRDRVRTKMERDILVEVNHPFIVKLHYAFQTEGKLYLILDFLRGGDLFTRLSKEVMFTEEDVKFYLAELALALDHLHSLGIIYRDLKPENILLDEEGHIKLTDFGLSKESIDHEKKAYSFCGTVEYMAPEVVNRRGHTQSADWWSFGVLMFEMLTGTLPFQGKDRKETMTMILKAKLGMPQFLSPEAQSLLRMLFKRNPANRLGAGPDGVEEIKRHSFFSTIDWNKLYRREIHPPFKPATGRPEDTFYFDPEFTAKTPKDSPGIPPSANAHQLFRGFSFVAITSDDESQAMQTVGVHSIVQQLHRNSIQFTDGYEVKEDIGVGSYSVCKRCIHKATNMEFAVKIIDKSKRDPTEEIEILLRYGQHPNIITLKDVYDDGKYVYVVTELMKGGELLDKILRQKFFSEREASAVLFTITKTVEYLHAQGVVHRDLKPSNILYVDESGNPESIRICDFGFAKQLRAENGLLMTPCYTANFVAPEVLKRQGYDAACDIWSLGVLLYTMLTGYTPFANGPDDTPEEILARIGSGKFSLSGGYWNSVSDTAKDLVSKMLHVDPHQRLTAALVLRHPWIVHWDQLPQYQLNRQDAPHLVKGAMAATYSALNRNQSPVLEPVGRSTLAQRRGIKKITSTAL
Ribosomal protein S6 kinase alpha-1/alpha-3 (Homo sapiens), sequence (Q15418 whole entry, looked up, the tested form may be a part): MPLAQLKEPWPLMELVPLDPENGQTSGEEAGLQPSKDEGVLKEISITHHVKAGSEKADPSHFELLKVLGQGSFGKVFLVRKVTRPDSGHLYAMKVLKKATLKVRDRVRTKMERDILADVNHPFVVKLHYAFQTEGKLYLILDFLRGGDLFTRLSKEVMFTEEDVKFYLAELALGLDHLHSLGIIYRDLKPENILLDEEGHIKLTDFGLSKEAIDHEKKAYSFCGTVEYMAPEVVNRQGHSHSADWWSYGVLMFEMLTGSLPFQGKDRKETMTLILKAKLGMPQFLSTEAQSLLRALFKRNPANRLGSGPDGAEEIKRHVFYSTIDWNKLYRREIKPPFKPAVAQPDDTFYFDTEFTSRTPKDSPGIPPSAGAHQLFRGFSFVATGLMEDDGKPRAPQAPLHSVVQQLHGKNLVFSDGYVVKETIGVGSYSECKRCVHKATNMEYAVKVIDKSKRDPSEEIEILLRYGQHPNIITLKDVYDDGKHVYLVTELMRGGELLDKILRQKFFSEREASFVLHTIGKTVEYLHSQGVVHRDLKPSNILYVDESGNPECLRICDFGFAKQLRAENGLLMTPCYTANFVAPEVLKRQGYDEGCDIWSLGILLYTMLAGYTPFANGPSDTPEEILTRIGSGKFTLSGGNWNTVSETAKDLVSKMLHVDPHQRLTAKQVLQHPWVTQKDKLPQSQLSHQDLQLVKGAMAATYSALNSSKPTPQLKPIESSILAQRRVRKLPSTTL
Ribosomal protein S6 kinase beta-1 (Homo sapiens), P23443 [T412E], sequence (P23443 whole entry T412E, looked up, the tested form may be a part): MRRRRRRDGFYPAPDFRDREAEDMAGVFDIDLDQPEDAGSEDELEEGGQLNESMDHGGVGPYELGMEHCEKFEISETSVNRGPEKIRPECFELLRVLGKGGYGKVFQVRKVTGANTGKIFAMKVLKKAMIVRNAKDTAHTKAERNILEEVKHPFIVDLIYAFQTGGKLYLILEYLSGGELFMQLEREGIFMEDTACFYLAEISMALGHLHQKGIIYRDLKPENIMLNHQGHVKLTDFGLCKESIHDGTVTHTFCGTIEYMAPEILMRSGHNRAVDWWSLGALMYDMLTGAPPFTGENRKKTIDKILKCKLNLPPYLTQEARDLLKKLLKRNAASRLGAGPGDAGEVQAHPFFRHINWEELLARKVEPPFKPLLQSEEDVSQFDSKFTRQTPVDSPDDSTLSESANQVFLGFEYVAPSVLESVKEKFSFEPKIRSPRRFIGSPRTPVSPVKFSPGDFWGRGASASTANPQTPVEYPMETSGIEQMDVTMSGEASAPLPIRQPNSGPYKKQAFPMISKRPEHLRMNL
Rho-associated protein kinase 1 (Homo sapiens), sequence (Q13464 2-1354 limits assumed): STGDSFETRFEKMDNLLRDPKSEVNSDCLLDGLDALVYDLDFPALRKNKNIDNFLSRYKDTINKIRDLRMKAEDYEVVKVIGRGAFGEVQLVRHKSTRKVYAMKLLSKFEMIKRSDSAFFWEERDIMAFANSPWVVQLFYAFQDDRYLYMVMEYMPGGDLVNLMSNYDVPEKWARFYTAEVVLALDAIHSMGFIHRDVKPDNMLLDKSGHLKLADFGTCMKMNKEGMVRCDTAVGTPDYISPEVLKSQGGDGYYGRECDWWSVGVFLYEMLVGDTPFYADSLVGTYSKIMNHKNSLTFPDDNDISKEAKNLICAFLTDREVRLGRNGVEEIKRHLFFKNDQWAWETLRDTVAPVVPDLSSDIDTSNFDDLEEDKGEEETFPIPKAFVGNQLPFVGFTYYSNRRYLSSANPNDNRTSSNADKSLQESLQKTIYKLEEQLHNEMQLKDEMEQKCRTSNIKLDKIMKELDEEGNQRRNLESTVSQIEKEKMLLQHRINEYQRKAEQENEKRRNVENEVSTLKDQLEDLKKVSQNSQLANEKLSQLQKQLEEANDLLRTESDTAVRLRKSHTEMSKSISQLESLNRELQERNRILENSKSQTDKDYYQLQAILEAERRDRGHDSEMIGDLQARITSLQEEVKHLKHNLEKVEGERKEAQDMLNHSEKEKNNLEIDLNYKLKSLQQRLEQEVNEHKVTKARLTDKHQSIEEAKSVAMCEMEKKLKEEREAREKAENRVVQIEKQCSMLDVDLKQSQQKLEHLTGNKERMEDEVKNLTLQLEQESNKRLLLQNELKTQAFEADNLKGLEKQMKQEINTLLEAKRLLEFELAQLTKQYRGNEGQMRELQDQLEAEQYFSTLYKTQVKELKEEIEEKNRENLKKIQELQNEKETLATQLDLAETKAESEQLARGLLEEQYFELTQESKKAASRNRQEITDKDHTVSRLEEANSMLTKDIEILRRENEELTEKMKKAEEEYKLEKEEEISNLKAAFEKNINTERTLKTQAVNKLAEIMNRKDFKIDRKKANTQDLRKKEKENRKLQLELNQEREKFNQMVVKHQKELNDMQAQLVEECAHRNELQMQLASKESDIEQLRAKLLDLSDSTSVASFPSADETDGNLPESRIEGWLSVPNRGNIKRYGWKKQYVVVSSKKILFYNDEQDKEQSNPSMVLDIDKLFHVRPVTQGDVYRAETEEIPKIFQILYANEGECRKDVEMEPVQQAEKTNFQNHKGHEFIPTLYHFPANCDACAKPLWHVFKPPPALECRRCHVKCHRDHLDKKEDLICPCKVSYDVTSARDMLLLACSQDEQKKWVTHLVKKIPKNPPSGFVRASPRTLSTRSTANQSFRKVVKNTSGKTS

## NC[C@@](O)(c1ccc(Cl)cc1)c1ccc(-c2cn[nH]c2)cc1 [AT-13148]
Homo sapiens [1]
  inhibition: > 80%
[2]
  inhibition: > 80%
[3]
  inhibition: > 80%
[4]
  inhibition: > 80%
Homo sapiens [5]
  inhibition: > 80%
[6]
  inhibition: > 80%
[7]
  inhibition: > 80%
[8]
  IC50: < 10 nM
[9]
  half-life: 2.8 h
[10]
  Kp at 24 h: 13.6
[11]
  inhibition: 50%
BT-474
  T/C: 36%
